Tested on: 843782-103-R-J1-PDC complex spheroid viability
Test: Anticancer human tumor 843782-103-R-J1-PDC patient-derived lung adenocarcinoma cell line growth inhibition [RAS]
Conditions: for IC50: curve of first compound; for viability, T/C: stronger effect = lower value
Procedure, shortened: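 Agents were tested in combination matrices in half-log decrements from a top concentration at or near clinical Cmax (10 microM if undetermined). Targets were multi-cell spheroids of tumour lines plus HUVEC and MSC stromal cells.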
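Also: viability read after seven days of compound exposure.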

O=C(c1ccc(F)c(F)c1Nc1ccc(I)cc1F)N1CC(O)([C@@H]2CCCCN2)C1 + CCn1c(-c2cccnc2C(C)OC)c2c3cc(ccc31)N1CCOC(CC(NC(=O)C(C(C)C)N(C)C(=O)C3(F)CCN(C(=O)C#CC(C)(C)N(C)C)CC3)C(=O)N3CCCC(N3)C(=O)OCC(C)(C)C2)C1
IC50 (second compound 0.000949 µM): 18.2 nM
IC50 (second compound 0.003 µM): 17.4 nM
IC50 (second compound 0.00949 µM): 22 nM
IC50 (second compound 0.03 µM): 14.8 nM
IC50 (second compound 0.0949 µM): 24.3 nM
IC50 (second compound 0.3 µM): 16.2 nM
viability, T/C (second compound 0.000949 µM, first compound 0.00316 µM): 74.1%
viability, T/C (second compound 0.000949 µM, first compound 0.01 µM): 56.1%
viability, T/C (second compound 0.000949 µM, first compound 0.0316 µM): 42.7%
viability, T/C (second compound 0.000949 µM, first compound 0.1 µM): 31.9%
viability, T/C (second compound 0.000949 µM, first compound 0.316 µM): 20.1%
viability, T/C (second compound 0.000949 µM, first compound 1 µM): 11.8%
viability, T/C (second compound 0.003 µM, first compound 0.00316 µM): 72.2%
viability, T/C (second compound 0.003 µM, first compound 0.01 µM): 49.3%
viability, T/C (second compound 0.003 µM, first compound 0.0316 µM): 43.2%
viability, T/C (second compound 0.003 µM, first compound 0.1 µM): 35.1%
viability, T/C (second compound 0.003 µM, first compound 0.316 µM): 20.1%
viability, T/C (second compound 0.003 µM, first compound 1 µM): 9.69%
viability, T/C (second compound 0.00949 µM, first compound 0.00316 µM): 69.7%
viability, T/C (second compound 0.00949 µM, first compound 0.01 µM): 58%
viability, T/C (second compound 0.00949 µM, first compound 0.0316 µM): 47.1%
viability, T/C (second compound 0.00949 µM, first compound 0.1 µM): 30.9%
viability, T/C (second compound 0.00949 µM, first compound 0.316 µM): 19.2%
viability, T/C (second compound 0.00949 µM, first compound 1 µM): 11.9%
viability, T/C (second compound 0.03 µM, first compound 0.00316 µM): 58.6%
viability, T/C (second compound 0.03 µM, first compound 0.01 µM): 58.1%
viability, T/C (second compound 0.03 µM, first compound 0.0316 µM): 38.9%
viability, T/C (second compound 0.03 µM, first compound 0.1 µM): 27.9%
viability, T/C (second compound 0.03 µM, first compound 0.316 µM): 20.1%
viability, T/C (second compound 0.03 µM, first compound 1 µM): 12.3%
viability, T/C (second compound 0.0949 µM, first compound 0.00316 µM): 75%
viability, T/C (second compound 0.0949 µM, first compound 0.01 µM): 61.4%
viability, T/C (second compound 0.0949 µM, first compound 0.0316 µM): 43.7%
viability, T/C (second compound 0.0949 µM, first compound 0.1 µM): 36.5%
viability, T/C (second compound 0.0949 µM, first compound 0.316 µM): 22.9%
viability, T/C (second compound 0.0949 µM, first compound 1 µM): 11.7%
viability, T/C (second compound 0.3 µM, first compound 0.00316 µM): 62.9%
viability, T/C (second compound 0.3 µM, first compound 0.01 µM): 59.7%
viability, T/C (second compound 0.3 µM, first compound 0.0316 µM): 38.2%
viability, T/C (second compound 0.3 µM, first compound 0.1 µM): 26.8%
viability, T/C (second compound 0.3 µM, first compound 0.316 µM): 23.2%
viability, T/C (second compound 0.3 µM, first compound 1 µM): 13.9%
